Values quoted from earlier work, collected in patent publication US20160088844A1 (priority 2013, published 2016).

Tested on: roots of plants; seeds of a variety of species
Details: in vivo

SMILES: Cn1c(=O)c2c(ncn2C)n(C)c1=O [caffeine]
- mitosis in the roots of plants: inhibit mitosis
- seed germination in a variety of species: inhibit seed germination
